From US20250144267A1, “USE OF POLYSACCHARIDE DERIVATIVE” (priority 2022, published 2025)
Entries after “also recorded” stand apart in the source; their conditions may differ.

Key:
[1] = test system: AB22 cells (mouse mesothelioma cells); assay: Cell toxicity evaluation (WST assay) of HA-ABA-PMX in AB22; type: cell-based; settings: PMX 10^−4 to 10 μg/mL, 48 hours
Protocol: (§1) As with the HA-ABA, the cell toxicity of HA-ABA-PMX in MeT-5A (human mesothelial cell line) and AB22 cells (mouse mesothelioma cells) was evaluated by WST assay.
(§2) Specifically, MeT-5A (human mesothelial cell line) and AB22 cells (mouse mesothelioma cells) were seeded on 24-well plates and incubated for 24 hours. The medium was then replaced with medium having HA-ABA-PMX dissolved at different PMX concentrations (10^−4 μg/mL, 10^−3 μg/mL, 10^−2 μg/mL, 10^−1 μg/mL, 1 μg/mL, 10 μg/mL). Cell viability (%) 48 hours after sample addition was then measured by WST-8 assay (Cell Counting Kit-8, Dojindo).
(§3) For purposes of comparison as a control test, cell toxicity was also evaluated using free PMX and HA-ADH-PMX in place of HA-ABA-PMX.

[2] = test system: MeT-5A (human mesothelial cell line); assay: Cell toxicity evaluation (WST assay) of HA-ABA-PMX in MeT-5A; type: cell-based; settings: PMX 10^−4 to 10 μg/mL, 48 hours
Protocol: as §1, §2, §3

[3] = Release test of PMX from HA-ABA-PMX (dialysis tube, PBS); type: physicochemical
Protocol: The release behavior or PMX from HA-ABA-PMX at different pH values was investigated using a dialysis tube (MWCO: 1 kDa). 1 mL of an aqueous solution of the HA-ABA-PMX (1 mg/mL) obtained in Example II-2 above was placed in a dialysis tube, and shaken at 50 rpm while being incubated with 79 mL of PBS (37° C., pH=5.0, 6.0 7.4). The external solution (sustained release solution) was collected at specific time points, and new PBS was substituted for the entire amount. The drug concentration in the collected external solution (sustained release solution) was measured by UV-vis, and the release rate of the drug PMX was calculated.
For purposes of comparison as control tests, the same release test was also performed with the HA-ABA-PMX solution replaced by an aqueous solution of PMX (0.12 mg/mL) (Free PMX), a mixed solution of HA and PMX obtained by dissolving hyaluronic acid (HA) (1 mg/mL) and PMX (0.12 mg/mL) in water (Free PMX mixed with HA), and an aqueous solution of HA-ADH-PMX having the HA bound irreversibly to the PMX by amide bonds.

[4] = Release test of Van from AL-ABA-Van solution (dialysis membrane, PBS); type: physicochemical; settings: PBS pH 5.0, 6.0, 7.4, 37°C
Protocol: The release behavior or Van from an AL-ABA-Van solution at different pH values was investigated using a dialysis membrane (pore size: 50 kDa). Specifically, 1 mL of an AL-ABA-Van solution of the AL-ABA-Van obtained in Example I-7 above dissolved in 3 mg/mL of pure water was injected into a dialysis membrane cut to 9 cm, and both ends of the dialysis membrane were tied with kite thread. This was placed in an 80 mL security container, 79 mL of PBS solution was added, and the mixture was stirred at the maximum rotational speed with a 1 cm stirrer tip in a 37° C. thermostatic tank. 1.0 mL samples were taken from the solution in the security container at specific time points (1, 2, 3, 4, 6, 8, 12, 24, and 48 hours). The sample solutions were subjected to UV-vis spectrum measurement, the drug concentration in the solutions was assayed based on absorbance, and the release rate of the drug Van (vancomycin release %) was calculated. The above measurements were conducted with pH 5.0, pH 6.0 and pH 7.4 PBS solutions (n=4 at each pH). […]

[5] = test system: AB22 cells (mouse mesothelioma cells); assay: Cell toxicity evaluation (WST assay) of HA-ABA-DOX in AB22; type: cell-based; settings: DOX 10^−3 to 100 μg/mL, 48 hours
Protocol: As with the HA-ABA, the cell toxicity of HA-ABA-DOX in AB22 cells (mouse mesothelioma cells) was evaluated by WST assay.
Specifically, AB22 cells (mouse mesothelioma cells) were seeded on 24-well plates and incubated for 24 hours. The medium was then replaced with media having HA-ABA-PMX dissolved at different DOX concentrations (10^−3 μg/mL, 10^−2 μg/mL, 10^−1 μg/mL, 1 μg/mL, 10 μg/mL, 100 μg/mL). Cell viability (%) 48 hours after sample addition was then measured by WST-8 assay (Cell Counting Kit-8, Dojindo).
For purposes of comparison as a control test, cell toxicity was also evaluated using free DOX in place of HA-ABA-DOX.

With “benzaldehyde-modified hyaluronic acid-pemetrexed conjugate [HA-ABA-PMX]” the “Cell growth inhibition effect (cell viability)” value (“Cell growth inhibition effect” for short) [1] was “dose-dependent cell growth inhibition effects; also recorded: reduced cell viability at lower concentrations than the free PMX and the HA-ADH-PMX”, the “Cell growth inhibition effect” value [2] was “dose-dependent cell growth inhibition effects; also recorded: reduced cell viability at lower concentrations than the free PMX and the HA-ADH-PMX” and the “PMX released (cumulative drug release)” value ([3]; PBS pH 5.0, 37°C, after 24 hours) was “more than 80%”. The PMX not released ([3]; PBS pH 7.4, 37°C, after 24 hours) was 40%.
In the case of `CN[C@H](CC(C)C)C(=O)N[C@H]1C(=O)N[C@@H](CC(N)=O)C(=O)N[C@H]2C(=O)N[C@H]3C(=O)N[C@H](C(=O)N[C@H](C(=O)O)c4cc(O)cc(O)c4-c4cc3ccc4O)[C@H](O)c3ccc(c(Cl)c3)Oc3cc2cc(c3O[C@@H]2O[C@H](CO)[C@@H](O)[C@H](O)[C@H]2O[C@H]2C[C@](C)(N)[C@H](O)[C@H](C)O2)Oc2ccc(cc2Cl)[C@H]1O` [Van, Vancomycin], the Van release behavior [4] is reported as “almost all of the Van was released in the first 10 hours”.
For `COc1cccc2c1C(=O)c1c(O)c3c(c(O)c1C2=O)C[C@@](O)(C(=O)CO)C[C@@H]3O[C@H]1C[C@H](N)[C@H](O)[C@H](C)O1` [free DOX, Doxorubicin], the “Cell growth inhibition effect” value [5] was “dose-dependent cell growth inhibition effects on AB22”.
With `Nc1nc2[nH]cc(CCc3ccc(C(=O)N[C@@H](CCC(=O)O)C(=O)O)cc3)c2c(=O)[nH]1` [Free PMX, Pemetrexed, reference compound] the “Cell growth inhibition effect” value [1] was “dose-dependent cell growth inhibition effects”, the “Cell growth inhibition effect” value [2] was “dose-dependent cell growth inhibition effects” and the PMX release behavior ([3]; PBS, 37°C) was “almost all of the PMX was rapidly released within 2 hours”.
